From patent US7435438B1, “Disinfectant and method of use” (Pure BioScience, priority 2003, dated 2008)

Tests used:
[1] = system: dermal lesions both contaminated and infected with gram negative and gram positive bacteria
[2] = system: Proprionibacterium acnes ATCC 6921; details: 30 ppm
[3] = system: Pseudomonas aeruginosa ATCC 15422
[4] = system: Staphylococcus aureus ATCC 6538
[5] = system: Salmonella cholerasuis ATCC 10708
[6] = system: Listeria monocytogenes ATCC 19111; details: 30 ppm
[7] = system: Enterococcus facium (VRE) ATCC 700221; details: 30 ppm
[8] = system: Staphylococcus aureus (MRSA) ATCC 700698; details: 30 ppm
[9] = system: Trichophyton Mentagrophytes ATCC 9533; details: 30 ppm
[10] = system: HIV type1, Strain HTLV = IIIB
[11] = system: Herpes simplex type I ATCC VR-733, Strain F(1)
[12] = system: Rhinovirus R37 ATCC VR-1147, Strain 151-1
[13] = system: Influenza A ATCC VR-544, Hong Kong Strain
[14] = system: Poliovirus type 2 ATCC VR-1002, Strain Lansing
[15] = system: listeria monocytogenes ATCC 11543
[16] = system: Enterococcus faecium ATCC 6569
[17] = system: Legionella in biofilm and planktonic samples
[18] = system: heterotrophic bacteria (HBC) in biofilm and planktonic phases
total bacteria present = details: approximately 5 ppm for 5 seconds, drip dry 10 seconds, rinse in 0.1 ppm for 5 seconds; fruits, vegetables, fish and shrimp
[19] = system: pathogenic bacterial populations, biofilms
[20] = equine, observed repeatedly during the study

silver dihydrogen citrate
efficacy for irrigating deep wounds and abscesses ([1]; equine): very efficacious
granulation / fibrosis ([1]; equine): promote healthy granulation without excessive fibrosis
healing time [1, 20]: Decreased healing time
scar formation [1, 20]: reduction in scar formation
performance on dermal lesions compared to available disinfectant products on the market ([1]; equine, wet dressings or spray): superior performance
healing and draining of deep wounds closed with drains ([1]; flushed with the disinfectant): rapid healing time and reduced draining
uterine flush for bacterial and/or fungal/yeast infection ([1]; preliminary results): very promising
KILL TIME [2]: 15-seconds
KILL TIME [3]: 30-seconds
effectiveness as hard surface disinfectant with direct food contact [3]: effective
KILL TIME [4]: 30-seconds
effectiveness as hard surface disinfectant with direct food contact [4]: effective
KILL TIME [5]: 30-seconds
effectiveness as hard surface disinfectant with direct food contact [5]: effective
KILL TIME [6]: 30-seconds
KILL TIME (E. coli 0157 ATCC 43888): 2-minute
effectiveness as hard surface disinfectant with direct food contact (E. coli 0157 ATCC 43888): effective
KILL TIME [7]: 2-minute
KILL TIME [8]: 2-minute
exposure after which the fungus is killed [9]: 10 min
KILL TIME [10]: 30-second
effectiveness as hard surface disinfectant with direct food contact [10]: effective
KILL TIME [11]: 1-minute
effectiveness as hard surface disinfectant with direct food contact [11]: effective
KILL TIME [12]: 10-minute
effectiveness as hard surface disinfectant with direct food contact [12]: effective
KILL TIME [13]: 10-minute
effectiveness as hard surface disinfectant with direct food contact [13]: effective
KILL TIME [14]: 10-minute
effectiveness as hard surface disinfectant with direct food contact [14]: effective
effectiveness as hard surface disinfectant with direct food contact (E. coli ATCC 11229): effective
effectiveness as hard surface disinfectant with direct food contact [15]: effective
effectiveness as hard surface disinfectant with direct food contact [16]: effective
result of ASTM E645-97 test (L. pneumophila): passed
killing of Legionella (in words) [17]: killed Legionella
reduction of heterotrophic bacteria [18]: did not significantly reduce
total bacteria present eliminated (total bacteria present): 99.99%
mortality in shrimp raising tanks [19]: decreasing
pathogenic bacterial populations, biofilms ([19]; shrimp raising tanks): significantly reducing
effectiveness as hard surface disinfectant with direct food contact (SARS): will be effective
